What was measured:
[1] = Hygroscopicity by dynamic vapor sorption (DVS); type: physicochemical
Method: The hygroscopicity of the crystalline forms of the salts of 3-[(dimethylamino)methyl]-N-{2-[4-(hydroxycarbamoyl)phenoxy]ethyl}-1-benzofuran-2-carboxamide according to the invention was evaluated by dynamic vapor sorption (DVS) using a DVS Intrinsic apparatus. A sample of 5 to 10 mg of the substance, weighed accurately, was disposed in a DVS sample pan operating at 25° C. under controlled humidity. The mass variation was recorded on the basis of a balancing bearing at 50% relative humidity, followed by three subsequent linear phases of increasing (from 50 to 90%), of decreasing (from 90 to 0%) and of increasing (from 0 to 50%) the relative humidity at a speed of 10% per hour. The relative humidity was maintained constant when it reached either 0, or 50, or 90% relative humidity, until the mass variation was less than 0.002% per minute, with a time limit of 15 hours.
The hygroscopicity of the hemipentahydrate crystalline form of the hydrogen sulfate of 3-[(dimethylamino)methyl]-N-{2-[4-(hydroxycarbamoyl)phenoxy]ethyl}-1-benzofuran-2-carboxamide according to the invention was evaluated by dynamic vapor sorption (DVS) using a DVS Intrinsic apparatus. A sample of 5 to 10 mg of the substance, weighed accurately, was disposed in a DVS sample pan operating at 25° C. under controlled humidity. The mass variation was recorded on the basis of a balancing bearing at 50% relative humidity, followed by three subsequent linear phases of increasing (from 50 to 90%), of decreasing (from 90 to 0%) and of increasing (from 0 to 50%) the relative humidity at a speed of 10% per hour. The relative humidity was maintained constant when it reached either 0, or 50, or 90 % relative humidity, until the mass variation is less than 0.002% per minute, with a time limit of 15 hours.

[2] = tested on: tumor cells; details: tumor cells cultured in vitro; Buggy et al. 2006; cited from earlier work
[3] = tested on: xenograft models; details: Buggy et al. 2006; cited from earlier work
[4] = salt of WO 2004/092115; use on industrial scale difficult; cited from earlier work

## CN(C)Cc1c(C(=O)NCCOc2ccc(C(=O)NO)cc2)oc2ccccc12.O=C(O)C(=O)O [Example 3, Oxalate of 3-[(dimethylamino)methyl]-N-{2-[4-(hydroxycarbamoyl)phenoxy]ethyl}-1-benzofuran-2-carboxamide]
[1]; exposure to between 0 and 90% relative humidity at 25° C.
  mass variation detected by DVS analysis: less than 0.2%

## CN(C)Cc1c(C(=O)NCCOc2ccc(C(=O)NO)cc2)oc2ccccc12 [abexinostat, 3-[(Dimethylamino)methyl]-N-{2-[4-(hydroxycarbamoyl)phenoxy]ethyl}-1-benzofuran-2-carboxamide]
[2]
  effect on apoptosis: induce apoptosis
  effect on cell growth: inhibit cell growth
[3]
  effect on tumor growth: inhibit tumor growth

## CN(C)Cc1c(C(=O)NCCOc2ccc(C(=O)NO)cc2)oc2ccccc12.Cl [hydrochloride, hydrochloride of 3-[(dimethylamino)methyl]-N-{2-[4-(hydroxycarbamoyl)phenoxy]ethyl}-1-benzofuran-2-carboxamide]
[4]
  hygroscopic properties: hygroscopic

## Hydrogen Sulfate of 3-[(dimethylamino)methyl]-N-{2-[4-(hydroxycarbamoyl)phenoxy]ethyl}-1-benzofuran-2-carboxamide [Example 5]
[1]; DVS, 25° C., increasing humidity
  relative humidity beyond which converted into hemiheptahydrate hydrogen sulfate: > 70 % relative humidity

## Hydrogen Sulfate of 3-[(dimethylamino)methyl]-N-{2-[4-(hydroxycarbamoyl)phenoxy]ethyl}-1-benzofuran-2-carboxamide [Example 6]
[1]; DVS, 25° C., decreasing humidity to 0%
  relative humidity below which dehydrated completely: Below 20 % relative humidity

From patent publication US20170266151A1, “Novel salts of 3-[(DIMETHYLAMINO)METHYL]-N--1-BENZOFURAN-2-CARBOXAMIDE, related crystalline forms, method for preparing the same and pharmaceutical compositions containing the same” (Pharmacyclics LLC, priority 2014, published 2017)
